Several values for one entry are separate records, joined by “and”; a condition that tells them apart may be missing. Equal entries are not always repeated. Structures can show the parent of a compound that is named as a salt.
What was measured:
[1] = Log P (n-octanol/water) of perfuming compounds (Tables 4 to 10)
[2] = Volatility of perfuming compounds (Tables 4 to 10), with top/middle/bottom note type; format: physicochemical
Summary of the method: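 Volatility is expressed in μg/l in air. Top notes are 70,000 to 100 μg/l, middle notes 99 to 50 μg/l, and bottom notes 49 to 0.1 μg/l. Compounds are grouped by olfactive family: watery, green, fruity, citrus, sweet, gourmand and woody.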

[3] = Odor threshold and odor value of perfuming compounds (Tables 4 to 10)
[4] = Table 6, perfuming compounds having a fruity note
[5] = Table 6, perfuming compounds having a fruity note, note type by volatility
[6] = note type (Top/Middle/Bottom) by volatility, perfuming compounds having a green note
[7] = perfuming compounds having a green note
[8] = Table 10, perfuming compounds having a woody note, note type by volatility
[9] = Table 4, watery note, top, middle or bottom note
[10] = Table 4, watery note, equals volatility divided by odor threshold
[11] = Table 8, perfuming compounds having a sweet note
[12] = Table 8, perfuming compounds having a sweet note, note type by volatility

Cc1ccc2c(c1)OCC(=O)CO2 [7-methyl-2H-1,5-benzodioxepin-3(4H)-one]
Log P (n-octanol/water) ([1]; n-octanol/water, perfuming compounds having a green note): 3.40 and 3.53

CC(OC=O)C1CCCC(C)(C)C1 (stereo not drawn)
Volatility [2, 4]: 1129.46 μg/l air
Type [2, 5]: TOP (perfuming compounds having a volatility ranging from 70,000 to 100 μg/l in air are referred to as “top notes”)
Log P (n-octanol/water) [1, 4]: 4.01

O=COCCc1ccccc1 [2-PHENYLETHYL FORMATE]
Volatility [2, 4]: 567.67 μg/l air
Type [2, 5]: TOP (perfuming compounds having a volatility ranging from 70,000 to 100 μg/l in air are referred to as “top notes”)
Volatility (μg/l air) ([2]; Table 7, citrus note): 567.67 μg/l air
Type ([2]; Table 7, citrus note, top, middle or bottom note): Top
Type [2, 6]: Top
Volatility (μg/l air) [2, 7]: 567.67 μg/l air
Odor Threshold (μg/l air) ([3]; Table 7, citrus note): 8.34E−04 μg/l air
Odor Value ([3]; Table 7, citrus note, equals volatility divided by odor threshold): 6.81E+05
Odor Threshold (μg/l air) [3, 7]: 8.34E−04 μg/l air

CC(=O)/C(C)=C/C1C(C)=CCCC1(C)C (racemic)
Volatility [2, 4]: 36.33 μg/l air
Type [2, 5]: Bottom
Type [2, 8]: Top
Volatility ([2]; Table 10, woody note): 106.28 μg/l air
Odor Threshold [3, 4]: 1.92E−04 μg/l air
Odor Value [3, 4]: 1.89E+05
Odor Threshold ([3]; Table 10, woody note): 5.03E−05 μg/l air

C=CCCCCCCCCC=O [10-undecenal]
Volatility (μg/l air) ([2]; Table 4, watery note): 136.73 μg/l air
Type [2, 9]: TOP (perfuming compounds having a volatility ranging from 70,000 to 100 μg/l in air are referred to as “top notes”)
Odor Threshold (μg/l air) ([3]; Table 4, watery note): 3.15E−03 μg/l air
Odor Value [3, 10]: 4.34E+04

C=CC(C)=CCC=C(C)C
Volatility [2, 4]: 3480.57 μg/l air
Type [2, 5]: TOP (perfuming compounds having a volatility ranging from 70,000 to 100 μg/l in air are referred to as “top notes”)
Type [2, 6]: Top
Volatility (μg/l air) [2, 7]: 3480.57 μg/l air
Odor Threshold (μg/l air) [3, 7]: 2.57E−02 μg/l air

3-(4-ETHYLPHENYL)-2,2-DIMETHYLPROPANAL (A) + 3-(2-ETHYLPHENYL)-2,2-DIMETHYLPROPANAL (B)
Volatility (μg/l air) ([2]; Table 4, watery note): 48.69 μg/l air
Type [2, 9]: bottom (perfuming compounds having a volatility ranging from 49 to 0.1 μg/l in air are referred to as “bottom notes”)
Odor Threshold (μg/l air) ([3]; Table 4, watery note): 5.33E−03 μg/l air
Odor Value [3, 10]: 9.14E+03

CCCCCC(=O)OCC [ETHYL HEXANOATE]
Volatility [2, 4]: 9675.10 μg/l air
Type [2, 5]: TOP (perfuming compounds having a volatility ranging from 70,000 to 100 μg/l in air are referred to as “top notes”)
Volatility [2, 11]: 9675.10 μg/l air
Type [2, 12]: Top
Volatility ([2]; Table 9, gourmand note): 9675.10 μg/l air
Type ([2]; Table 9, perfuming compounds having a gourmand note, note type by volatility): Top
Type [2, 6]: Top
Volatility (μg/l air) [2, 7]: 9675.10 μg/l air
Odor Threshold [3, 11]: 9.11E−04 μg/l air
Odor Value [3, 11]: 1.06E+07
Odor Threshold ([3]; Table 9, gourmand note): 9.11E−04 μg/l air
Odor Threshold (μg/l air) [3, 7]: 9.11E−04 μg/l air

CC(=O)OCCC1=CCC2CC1C2(C)C (stereo not drawn)
Type [2, 8]: Middle
Volatility ([2]; Table 10, woody note): 60.02 μg/l air
Odor Threshold ([3]; Table 10, woody note): 1.10E−01 μg/l air

CC(C=O)Cc1ccc2c(c1)OCO2 (racemic) [(+−)-3-(1,3-BENZODIOXOL-5-YL)-2-METHYLPROPANAL]
Volatility (μg/l air) ([2]; Table 4, watery note): 3.57 μg/l air
Type [2, 9]: bottom (perfuming compounds having a volatility ranging from 49 to 0.1 μg/l in air are referred to as “bottom notes”)
Odor Threshold (μg/l air) ([3]; Table 4, watery note): 2.23E−04 μg/l air
Odor Value [3, 10]: 1.60E+04

CC(C)c1cccc(C(C)CC=O)c1 (racemic) [(+−)-3-(3-ISOPROPYL-1-PHENYL)BUTANAL]
Volatility (μg/l air) ([2]; Table 4, watery note): 14.74 μg/l air
Type [2, 9]: bottom (perfuming compounds having a volatility ranging from 49 to 0.1 μg/l in air are referred to as “bottom notes”)
Type [2, 6]: Bottom
Volatility (μg/l air) [2, 7]: 14.74 μg/l air
Odor Threshold (μg/l air) ([3]; Table 4, watery note): 7.71E−04 μg/l air
Odor Value [3, 10]: 1.91E+04
Odor Threshold (μg/l air) [3, 7]: 7.71E−04 μg/l air

CC1=C[C@H]2C[C@H](C(C)C)[C@@H]1[C@@H](C1OCCO1)C2 (racemic)
Type [2, 6]: Bottom
Volatility (μg/l air) [2, 7]: 11.75 μg/l air
Odor Threshold (μg/l air) [3, 7]: 1.51E−01 μg/l air

CC(=O)c1ccccc1 [1-phenylethanone]
Volatility [2, 11]: 1728.98 μg/l air
Type [2, 12]: Top
Odor Threshold [3, 11]: 6.61E−03 μg/l air
Odor Value [3, 11]: 2.62E+05

C=C(C)CC(C(C)=O)C(=O)OCC (racemic)
Volatility [2, 4]: 295.22 μg/l air
Type [2, 5]: TOP (perfuming compounds having a volatility ranging from 70,000 to 100 μg/l in air are referred to as “top notes”)
Type [2, 6]: Top
Volatility (μg/l air) [2, 7]: 295.22 μg/l air
Odor Threshold (μg/l air) [3, 7]: 3.64E−03 μg/l air

CCC(=O)OCc1ccccc1 [BENZYL PROPANOATE]
Volatility [2, 4]: 113.60 μg/l air
Type [2, 5]: TOP (perfuming compounds having a volatility ranging from 70,000 to 100 μg/l in air are referred to as “top notes”)
Type [2, 6]: Top
Volatility (μg/l air) [2, 7]: 113.60 μg/l air
Odor Threshold [3, 4]: 2.81E−02 μg/l air
Odor Value [3, 4]: 4.04E+03
Odor Threshold (μg/l air) [3, 7]: 2.81E−02 μg/l air

Source: patent US20240301319A1, “PERFUMING COMPOSITIONS” (FIRMNICH SA, priority 2017, published 2024)
